Broadly, the inhibition is the change of the read-out against control, counted positive when it falls.

The values below come from patent US7741479B2, “Urea inhibitors of MAP kinases” (Locus Pharmaceuticals, Inc., priority 2004, dated 2010).

The target of one test is T1, p38 (Homo sapiens, UniProt Q16539).
T1 construct: made in house
T1 sequence (Q16539 whole entry): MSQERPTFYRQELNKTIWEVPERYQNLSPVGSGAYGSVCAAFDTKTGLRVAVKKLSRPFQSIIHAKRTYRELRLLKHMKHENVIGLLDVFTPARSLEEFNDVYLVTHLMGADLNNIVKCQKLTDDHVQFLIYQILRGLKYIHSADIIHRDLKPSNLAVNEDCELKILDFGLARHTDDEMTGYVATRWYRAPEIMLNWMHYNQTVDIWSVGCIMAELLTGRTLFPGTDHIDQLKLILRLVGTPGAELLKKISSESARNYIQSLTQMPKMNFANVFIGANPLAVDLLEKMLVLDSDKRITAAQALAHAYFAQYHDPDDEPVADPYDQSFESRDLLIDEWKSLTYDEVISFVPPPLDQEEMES
As to the kind of experiment: Protein Kinase Assay (33P incorporation from γ-[33P]ATP into GST-ATF-2 substrate). The format is biochemical. The settings on record: compound at 3 μM (noted beside the value in Table 1); read-out: Protein Kinase (% Inhibition). The method, then: Human non-activated p38 kinase (MW=43 kDa) was purified according to the protocol described herein. Chemicals were purchased from Calbiochem. Fluorescence characterizations were conducted using a Cary Eclipse (Varian Analytical Instruments, Walnut Creek, Calif.). Research-grade CM5 sensor chips and coupling reagents (N-ethyl-N′-dimethylaminopropylcarbodiimide (EDC) N-hydroxysuccinimide (NHS), and 1 M ethanolamine HCl, pH 8.5) were purchased from Biacore AB (Uppsala, Sweden). The biosensor analyses were conducted using a Biacore 3000 SPR instrument. The kinetic analyses were carried on a Molecular Devices spectrophotometer (Molecular Devices Corporation, CA, USA).
Protein Kinase Assay. The protein kinase activity of p38 was determined by measuring the incorporation of ^33P from γ-[^33P]ATP into the GST-ATF-2 substrate, amino acids 19-96 (Upstate, NY USA). […] Compounds were preincubated with 10 nM p38 for 20 min at 30° C.; the reactions were initiated by the addition of GST-ATF2 and ATP and incubated for 70 min at 30° C. before being stopped by the addition of 10 μL of 600 mM phosphoric acid. The phosphorylated substrate was captured on phosphocellulose 96-well plate (Millipore MAPHNOB 10), washed with 100 mM phosphoric acid, and counted in a BeckmenCoulter LS6500 liquid scintillation counter.
Take `CC(C)(C)c1cc(C(=O)N2CCNS(=O)(=O)CC2)c(NC(=O)Nc2cccc3ccccc23)s1` [Example 37, 1-[5-tert-butyl-3-(1,1-dioxo-1λ^6-[1,2,5]thiadiazepane-5-carbonyl)thiophen-2-yl]-3-naphthalen-1-ylurea]: the inhibition at 3 µM was 51 to 75%.
Consider `CC(C)(C)c1cc(C(=O)N2CCNS(=O)(=O)CC2)c(NC(=O)Nc2ccc3ccccc3c2)s1` [Example 38, 1-[5-tert-butyl-3-(1,1-dioxo-1λ^6-[1,2,5]thiadiazepane-5-carbonyl)thiophen-2-yl]-3-naphthalen-2-ylurea], for which the inhibition at 3 µM fell in the range of 76 to 100%.
In the case of `CC(C)(C)c1cc(C(=O)N2CCNS(=O)(=O)CC2)c(NC(=O)Nc2ccc(Cl)cc2)s1` [Example 39, 1-[5-tert-butyl-3-(1,1-dioxo-1λ^6-[1,2,5]thiadiazepane-5-carbonyl)thiophen-2-yl]-3-(4-chlorophenyl)urea], the inhibition at 3 µM fell in the range of 76 to 100%.
As for `CC(C)(C)c1cc(C(=O)N2CC[S@SP2](=O)(=O)CC2)c(NC(=O)Nc2ccc(Br)c3ccccc23)s1` [Example 40, 1-(4-Bromonaphthalen-1-yl)-3-[5-tert-butyl-3-(1,1-dioxo-1λ^6-thiomorpholine-4-carbonyl)thiophen-2-yl]urea], the inhibition at 3 µM fell in the range of 76 to 100%.
As to `CC(C)(C)c1cc(C(=O)N2CCS(=O)(=O)CC2)c(NC(=O)Nc2ccc(Cl)c3ccccc23)s1` [Example 41, 1-[5-tert-butyl-3-(1,1-dioxo-1λ^6-thiomorpholine-4-carbonyl)thiophen-2-yl]-3-(4-chloronaphthalen-1-yl)urea], the inhibition at 3 µM lay within 76 to 100%.
Same read-out and setting: the same measure for `CC(C)(C)c1cc(C(=O)N2CCS(=O)(=O)CC2)c(NC(=O)Nc2cccc3nc[nH]c23)s1` [Example 42, 1-(3H-Benzimidazol-4-yl)-3-[5-tert-butyl-3-(1,1-dioxo-1λ^6-thiomorpholine-4-carbonyl)thiophen-2-yl]urea]: 76 to 100%; for `CC(C)(C)c1cc(C(=O)N2CCS(=O)(=O)CC2)c(NC(=O)Nc2ccc(C#N)c3ccccc23)s1` [Example 43, 1-[5-tert-butyl-3-(1,1-dioxo-1λ^6-thiomorpholine-4-carbonyl)thiophen-2-yl]-3-(4-cyanonaphthalen-1-yl)urea]: 76 to 100%.

The same test, now with this note: compound at 3 μM; read-out: Protein Kinase (% Inhibition at 3 μM).
On to `CC(C)(C)c1cc(C(=O)NCCS(C)(=O)=O)c(NC(=O)Nc2cccc3ccccc23)s1` [Example 45, 1-(3-(2-(Methylsulfonyl)ethylcarbamoyl)-5-tert-butylthiophen-2-yl)-3-(naphthalen-1-yl)urea], for which the inhibition at 3 µM fell in the range of 76 to 100%.
The same measure, in the same setting: with `CC(C)(C)c1cc(C(=O)N2CCNC(=O)CC2)c(NC(=O)Nc2ccc(Cl)cc2)s1` [Example 46, 1-[5-tert-butyl-3-(5-oxo-[1,4]diazepane-1-carbonyl)thiophen-2-yl]-3-(4-chloro-phenyl)urea] the figure was 76 to 100%; with `CC(C)(C)c1cc(C(=O)N2CCNC(=O)C2)c(NC(=O)Nc2ccc(Cl)cc2)s1` [Example 47, 1-[5-tert-butyl-3-(3-oxopiperazine-1-carbonyl)thiophen-2-yl]-3-(4-chloro-phenyl)urea], 76 to 100%; with `CC(C)(C)c1cc(C(=O)N2CCS(=O)(=O)CC2)c(NC(=O)Nc2c[nH]c3ccccc23)s1` [Example 49, 1-[5-tert-butyl-3-(1,1-dioxo-1λ^6-thiomorpholine-4-carbonyl)thiophen-2-yl]-3-(1H-indol-3-yl)urea], 51 to 75%.
Turning to `CC(C)(C)c1cc(NC(=O)Nc2cccc3ccccc23)c(C(=O)N2CCNC(=O)CC2)s1` [Example 50, 1-[5-tert-butyl-2-(5-oxo-[1,4]diazepane-1-carbonyl)thiophen-3-yl]-3-naphthalen-1-ylurea], the inhibition at 3 µM was 76 to 100%.
On to `CC(C)(C)c1cc(NC(=O)Nc2cccc3ccccc23)c(C(=O)N2CCNS(=O)(=O)CC2)s1` [Example 51, 1-[5-tert-butyl-2-(1,1-dioxo-1λ^6-[1,2,5]thiadiazepane-5-carbonyl)thiophen-3-yl]-3-naphthalen-1-ylurea], for which the inhibition at 3 µM lay in the range of 76 to 100%.
On the same count and under the same terms, with `CC(C)(C)c1cc(NC(=O)Nc2cccc3ccccc23)c(C(=O)N2CCNC(=O)C2)s1` [Example 52, 1-[5-tert-butyl-2-(3-oxopiperazine-1-carbonyl)thiophen-3-yl]-3-naphthalen-1-ylurea] the figure was 76 to 100%; with `CC(C)(C)c1cc(C(=O)N2CCNC(=O)CC2)c(NC(=O)Nc2cccc(Cl)c2Cl)s1` [Example 53, 1-[5-tert-butyl-3-(5-oxo-[1,4]diazepane-1-carbonyl)thiophen-2-yl]-3-(2,3-dichlorophenyl)urea], 76 to 100%.
Take `CC(C)(C)c1cc(C(=O)N2CCNC(=O)CC2)c(NC(=O)Nc2cccc(Cl)c2)s1` [Example 54, 1-[5-tert-butyl-3-(5-oxo-[1,4]diazepane-1-carbonyl)thiophen-2-yl]-3-(3-chlorophenyl)urea]: the inhibition at 3 µM is 76 to 100%.
Same read-out and setting: with `CC(C)(C)c1cc(C(=O)N2CCNC(=O)CC2)c(NC(=O)Nc2ccc(C#N)c3ccccc23)s1` [Example 55, 1-[5-tert-butyl-3-(5-oxo-[1,4]diazepane-1-carbonyl)thiophen-2-yl]-3-(4-cyanonaphthyl)urea] the figure was 76 to 100%; with `CC(C)(C)c1cc(C(=O)N2CCNS(=O)(=O)CC2)c(NC(=O)Nc2ccc(C#N)c3ccccc23)s1` [Example 56, 1-[5-tert-butyl-3-(1,1-dioxo-1λ^6-[1,2,5]thiadiazepane-5-carbonyl)thiophen-2-yl]-3-(4-cyanonaphthalen-1-yl)urea], 76 to 100%; with `CC(C)(C)c1cc(C(=O)N2CCNC(=O)C2)c(NC(=O)Nc2ccc(C#N)c3ccccc23)s1` [Example 57, 1-[5-tert-butyl-3-(3-oxopiperazine-1-carbonyl)thiophen-2-yl]-3-(4-cyano-naphthalen-1-yl)urea], 76 to 100%.
Consider `CC(C)(C)c1cc(C(=O)N2CCS(=O)(=O)CC2)c(NC(=O)Nc2cccc(Cl)c2Cl)s1` [Example 58, 1-[5-tert-butyl-3-(1,1-dioxo-1λ^6-thiomorpholine-4-carbonyl)thiophen-2-yl]-3-(2,3-dichlorophenyl)urea], for which the inhibition at 3 µM was 76 to 100%.
Same read-out and setting: with `CC(C)(C)c1cc(C(=O)N2CCS(=O)(=O)CC2)c(NC(=O)Nc2cccc(Cl)c2)s1` [Example 59, 1-[5-tert-butyl-3-(1,1-dioxo-1λ^6-thiomorpholine-4-carbonyl)thiophen-2-yl]-3-(3-chlorophenyl)urea] the figure was 76 to 100%.

The test is the same for the next values; noted with them: compound at 10 μM.
`CC(C)(C)c1cc(C(=O)N2CCS(=O)(=O)CC2)c(NC(=O)Nc2ccc(Oc3ccccc3)cc2)s1` [Example 28, 1-[5-tert-butyl-3-(1,1-dioxo-1λ^6-thiomorpholine-4-carbonyl)thiophen-2-yl]-3-(4-phenoxyphenyl)urea] showed an inhibition at 10 µM of 0 to 25%.
`CC(C)(C)c1cc(C(=O)N2CCS(=O)(=O)CC2)c(NC(=O)Nc2cccc3cccnc23)s1` [Example 29, 1-[5-tert-butyl-3-(1,1-dioxo-1λ^6-thiomorpholine-4-carbonyl)thiophen-2-yl]-3-quinolin-8-ylurea] registered an inhibition at 10 µM of 0 to 25%.
Still for that read-out and setting: the same measure for `CC(C)(C)c1cc(C(=O)N2CCS(=O)(=O)CC2)c(NC(=O)NC2CCc3ccccc32)s1` (stereo not drawn) [Example 30, 1-[5-tert-butyl-3-(1,1-dioxo-1λ^6-thiomorpholine-4-carbonyl)thiophen-2-yl]-3-indan-1-ylurea]: 51 to 75%.
Same read-out and setting: the same measure for `CC(C)(C)c1cc(C(=O)N2CCS(=O)(=O)CC2)c(NC(=O)Nc2ccnc3ccccc23)s1` [Example 31, 1-[5-tert-butyl-3-(1,1-dioxo-1λ^6-thiomorpholine-4-carbonyl)thiophen-2-yl]-3-quinolin-4-ylurea]: 51 to 75%; for `CC(C)(C)c1cc(C(=O)N2CCS(=O)(=O)CC2)c(NC(=O)Nc2cccc3cn[nH]c23)s1` [Example 32, 1-[5-tert-butyl-3-(1,1-dioxo-1λ^6-thiomorpholine-4-carbonyl)thiophen-2-yl]-3-(1H-indazol-7-yl)urea]: 26 to 50%; for `CC(C)(C)c1cc(C(=O)N2CCS(=O)(=O)CC2)c(NC(=O)Nc2ccc3c(c2)NC(=O)CC3)s1` [Example 33, 1-[5-tert-butyl-3-(1,1-dioxo-1λ^6-thiomorpholine-4-carbonyl)thiophen-2-yl]-3-(2-oxo-1,2,3,4-tetrahydroquinolin-7-yl)urea]: 0 to 25%.
Take `CC(C)(C)c1cc(C(=O)N2CCS(=O)(=O)CC2)c(NC(=O)Nc2ccc(O)c3ccccc23)s1` [Example 34, 1-[5-tert-butyl-3-(1,1-dioxo-1λ^6-thiomorpholine-4-carbonyl)thiophen-2-yl]-3-(4-hydroxynaphthalen-1-yl)urea]: the inhibition at 10 µM lay in the range of 76 to 100%.
The compound `CC(C)(C)c1cc(C(=O)N2CCNC(=O)C2)c(NC(=O)Nc2cccc3ccccc23)s1` [Example 35, 1-[5-tert-butyl-3-(3-oxopiperazine-1-carbonyl)thiophen-2-yl]-3-naphthalen-1-ylurea] had an inhibition at 10 µM of 51 to 75%.
As for `CC(C)(C)c1cc(C(=O)N2CCNC(=O)CC2)c(NC(=O)Nc2ccc3ccccc3c2)s1` [Example 44, 1-[5-tert-butyl-3-(5-oxo[1,4]diazepane-1-carbonyl)thiophen-2-yl]-3-naphthalen-2-ylurea], the inhibition at 10 µM lay in the range of 76 to 100%.
